Patent publication US20240327400A1, “COMPOSITIONS AND METHODS FOR MODULATING HAIR GROWTH” (The Regents of the University Of California, priority 2020, published 2024)

Tested on: Lactate dehydrogenase (LDH) activity
Test: LDH activity assay on human skin lysate (Ldh platereader protocol)
Type: biochemical
Conditions: human skin lysate pretreated with benzil prior to incubation with MPC inhibitors; FIG. 7
Protocol: Human skin samples were homogenized with a Benchmark BeadBlaster24R in 500 μl of Pierce RIPA Lysis and Extraction buffer (Thermo Scientific Cat No: 89900), centrifuged at 10,000 g for 15 minutes at 4° C. to remove insoluble material, and the soluble fraction quantified by Pierce BCA assay (Thermo Scientific Cat No: 23225). Lactate dehydrogenase activity was quantified using a Sigma Aldrich Lactate Dehydrogenase Activity Assay Kit (Catalog No: MAK066). Briefly, 10 μg of sample was loaded per well in a 96 well plate along with 20 uM of Pelage compounds and pre-incubated at 37° C. for 30 minutes before addition of Ldh assay master mix. Using a Biotek Synergy HTX multi-mode reader, the plate was incubated at 37° C. and absorbance measurements at 450 nm (A450) were taken every 3 minutes for 30 minutes. The LDH activity of each sample was quantified by calculating the AA450 over time.

N#C/C(=C\c1cn(-c2ccccc2)c2ccccc12)C(=O)O [UK5099]
effect on LDH activity after pretreatment with a carboxylesterase inhibitor (benzil): no effect
